Measured values published in the NIST ThermoML archive (doi:10.1016/j.fluid.2008.03.015).
Values joined by “and” are separate entries in the source; they are usually repeats but may differ in a detail not shown here. Identical values can stand only once.

Details: Liquid, Closed cell (Static) method

ClCCCl [1,2-dichloroethane]
Details | vapor or sublimation pressure
284.86 K | 5.38 kPa
284.87 K | 5.37 kPa
294.83 K | 8.96 kPa
294.84 K | 8.95 kPa
304.82 K | 14.33 kPa and 14.32 kPa
314.81 K | 22.18 kPa
314.83 K | 22.18 kPa
324.82 K | 33.28 kPa
324.83 K | 33.27 kPa
334.79 K | 48.45 kPa
334.82 K | 48.46 kPa
344.81 K | 67.97 kPa
344.82 K | 67.98 kPa
354.89 K | 94.95 kPa and 94.94 kPa

COC(C)(C)C [2-methoxy-2-methylpropane]
Details | vapor or sublimation pressure
274.9 K | 11.59 kPa
274.91 K | 11.59 kPa
284.82 K | 18.55 kPa
294.8 K | 28.78 kPa
294.81 K | 28.78 kPa
304.79 K | 43.24 kPa and 43.26 kPa
314.75 K | 62.95 kPa
314.76 K | 62.97 kPa
324.9 K | 89.66 kPa and 89.69 kPa
334.85 K | 124.02 kPa
344.84 K | 167.14 kPa
344.85 K | 167.57 kPa
354.82 K | 221.79 kPa and 221.39 kPa

CCOCC [diethyl ether]
Details | vapor or sublimation pressure
255.47 K | 10.11 kPa
255.48 K | 10.13 kPa
255.5 K | 10.14 kPa
265.44 K | 17.06 kPa
265.45 K | 17.07 kPa
274.86 K | 26.9 kPa
274.87 K | 26.91 kPa
284.83 K | 41.98 kPa
284.84 K | 42 kPa
294.77 K | 62.89 kPa
294.78 K | 62.93 kPa
304.75 K | 91.58 kPa and 91.56 kPa
304.76 K | 91.6 kPa
314.74 K | 129.3 kPa and 129.45 kPa
314.75 K | 129.42 kPa
324.89 K | 179.51 kPa and 179.65 kPa and 179.77 kPa

CC(C)OC(C)C [diisopropyl ether]
Details | vapor or sublimation pressure
284.93 K | 10.74 kPa and 10.75 kPa
294.9 K | 17.21 kPa
294.91 K | 17.21 kPa
304.87 K | 26.57 kPa
304.89 K | 26.58 kPa
314.86 K | 39.71 kPa
314.87 K | 39.72 kPa
324.85 K | 57.64 kPa
324.87 K | 57.65 kPa
334.85 K | 81.41 kPa and 81.42 kPa
344.84 K | 112.36 kPa
344.85 K | 112.39 kPa
354.87 K | 151.81 kPa
354.88 K | 151.82 kPa
